{"source": "patent US20100273749A1", "about": "“Method for Treating Dry-Eye Syndrome” (priority 2006, published 2010)", "origin": "cited, not measured here", "tested_on": "ACAT", "conditions": "several animal studies, nonselective ACAT inhibitors", "data": [{"smiles": "CCCCCCCCN1CCc2c(C)c(CC(=O)O)c(C)c(NC(=O)C(C)(C)C)c21", "note": "[pactimibe]", "values": [{"measurement": "reduction of atherosclerotic plaques", "value": "promising reduction of atherosclerotic plaques"}]}, {"smiles": "CC(C)c1cc(C(C)C)c(CC(=O)NS(=O)(=O)Oc2c(C(C)C)cccc2C(C)C)c(C(C)C)c1", "note": "[avasimibe]", "values": [{"measurement": "reduction of atherosclerotic plaques", "value": "promising reduction of atherosclerotic plaques"}]}]}
